Test results published in article PMC7265341, “Quantifying CDK inhibitor selectivity in live cells” (Nature Communications, 2020).
Read-outs that look alike come from different tables or passages of the source.

What was measured:
[1] = biological target: CDK19/Cyclin C (Homo sapiens, UniProt Q9BWU1); assay: NanoBRET live-cell target engagement, NanoLuc-CDK19/Cyclin C in HEK-293; details: read-out: Inhibition at 10µM (%), CDK19/C
[2] = biological target: CDK11B/Cyclin L2 (Homo sapiens, UniProt P21127); assay: NanoBRET live-cell target engagement, CDK11B-NanoLuc/Cyclin L2 in HEK-293; assay type: binding; details: CDK11b/L2, read-out: Inhibition at 10µM (%)
Sequence of CDK11B/Cyclin L2 (P21127 1-782 isoform P21127-2): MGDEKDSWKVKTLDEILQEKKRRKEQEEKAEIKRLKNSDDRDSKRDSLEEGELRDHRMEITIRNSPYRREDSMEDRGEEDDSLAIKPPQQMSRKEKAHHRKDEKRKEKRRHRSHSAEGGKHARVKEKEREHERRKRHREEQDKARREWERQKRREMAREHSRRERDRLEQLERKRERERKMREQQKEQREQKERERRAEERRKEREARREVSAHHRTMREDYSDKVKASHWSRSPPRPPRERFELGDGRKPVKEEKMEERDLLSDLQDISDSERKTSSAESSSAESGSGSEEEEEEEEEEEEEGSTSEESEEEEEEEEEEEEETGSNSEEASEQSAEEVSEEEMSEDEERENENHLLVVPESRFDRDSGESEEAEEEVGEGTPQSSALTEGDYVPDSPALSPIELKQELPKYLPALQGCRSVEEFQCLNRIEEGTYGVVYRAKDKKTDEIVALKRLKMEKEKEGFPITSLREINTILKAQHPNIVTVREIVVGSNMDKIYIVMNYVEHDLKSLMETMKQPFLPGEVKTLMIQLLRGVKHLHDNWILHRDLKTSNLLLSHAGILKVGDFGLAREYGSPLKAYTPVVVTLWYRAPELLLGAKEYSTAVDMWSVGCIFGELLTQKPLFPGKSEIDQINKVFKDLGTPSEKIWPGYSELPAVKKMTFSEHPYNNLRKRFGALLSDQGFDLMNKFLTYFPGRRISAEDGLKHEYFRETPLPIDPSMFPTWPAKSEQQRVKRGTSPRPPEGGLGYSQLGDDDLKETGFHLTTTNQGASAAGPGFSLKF

[3] = biological target: CDK9/Cyclin K (Homo sapiens, UniProt P50750); assay: NanoBRET live-cell target engagement, NanoLuc-CDK9/Cyclin K in HEK-293; assay type: binding; details: CDK9/K, read-out: Inhibition at 10µM (%)
[4] = biological target: CDK6/Cyclin D1 (Homo sapiens, UniProt Q00534); assay: NanoBRET live-cell target engagement, NanoLuc-CDK6/Cyclin D1 in HEK-293; assay type: binding; details: CDK6/D1, read-out: Inhibition at 10µM (%)
[5] = biological target: CDK14/Cyclin Y (Homo sapiens, UniProt O94921); assay: NanoBRET live-cell target engagement, CDK14-NanoLuc/Cyclin Y in HEK-293; assay type: binding; details: CDK14/Y, read-out: Inhibition at 10µM (%)
Sequence of CDK14/Cyclin Y (O94921 whole entry): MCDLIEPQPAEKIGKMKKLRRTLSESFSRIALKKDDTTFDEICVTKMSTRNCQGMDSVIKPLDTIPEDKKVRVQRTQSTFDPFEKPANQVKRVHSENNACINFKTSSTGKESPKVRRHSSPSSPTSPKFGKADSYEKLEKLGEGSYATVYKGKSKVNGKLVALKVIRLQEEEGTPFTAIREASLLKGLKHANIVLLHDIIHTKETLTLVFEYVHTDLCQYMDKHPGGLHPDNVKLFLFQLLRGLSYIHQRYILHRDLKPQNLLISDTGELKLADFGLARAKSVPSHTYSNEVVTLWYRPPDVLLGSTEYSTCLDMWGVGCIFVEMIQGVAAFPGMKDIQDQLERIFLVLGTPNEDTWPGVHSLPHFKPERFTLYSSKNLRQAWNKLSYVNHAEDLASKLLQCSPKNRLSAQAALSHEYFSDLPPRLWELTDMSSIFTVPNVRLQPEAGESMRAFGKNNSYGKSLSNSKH
Sequence of CDK14/Cyclin Y (Q8ND76 whole entry partner): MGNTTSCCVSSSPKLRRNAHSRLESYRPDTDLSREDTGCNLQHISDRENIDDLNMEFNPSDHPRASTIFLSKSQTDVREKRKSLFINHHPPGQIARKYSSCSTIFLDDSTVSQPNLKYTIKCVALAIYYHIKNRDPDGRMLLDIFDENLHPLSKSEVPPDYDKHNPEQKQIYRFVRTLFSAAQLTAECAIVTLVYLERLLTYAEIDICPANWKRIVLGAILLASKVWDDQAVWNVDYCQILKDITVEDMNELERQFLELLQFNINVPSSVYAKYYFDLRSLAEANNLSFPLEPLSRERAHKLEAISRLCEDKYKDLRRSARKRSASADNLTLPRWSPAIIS

[6] = biological target: CDK18/Cyclin Y (Homo sapiens, UniProt Q07002); assay: NanoBRET live-cell target engagement, CDK18-NanoLuc/Cyclin Y in HEK-293; assay type: binding; details: CDK18/Y, read-out: Inhibition at 10µM (%)
Sequence of CDK18/Cyclin Y (Q07002 whole entry): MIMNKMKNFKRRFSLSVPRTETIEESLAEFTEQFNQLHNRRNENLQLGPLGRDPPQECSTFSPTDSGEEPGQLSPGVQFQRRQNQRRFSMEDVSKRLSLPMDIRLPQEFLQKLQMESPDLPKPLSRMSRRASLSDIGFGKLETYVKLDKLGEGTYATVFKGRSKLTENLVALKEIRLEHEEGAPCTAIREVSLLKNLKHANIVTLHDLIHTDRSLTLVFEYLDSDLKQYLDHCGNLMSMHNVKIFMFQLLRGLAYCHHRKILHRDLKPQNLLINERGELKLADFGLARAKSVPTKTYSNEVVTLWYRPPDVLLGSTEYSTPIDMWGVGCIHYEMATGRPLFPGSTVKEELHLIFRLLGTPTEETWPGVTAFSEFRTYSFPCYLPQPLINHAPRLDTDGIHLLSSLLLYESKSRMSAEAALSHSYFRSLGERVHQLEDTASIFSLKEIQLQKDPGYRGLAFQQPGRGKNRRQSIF
Sequence of CDK18/Cyclin Y (Q8ND76 whole entry partner): as the sequence (Q8ND76 whole entry partner) above

[7] = biological target: CDK5/CDK5R1 (Homo sapiens, UniProt Q00535); assay: NanoBRET live-cell target engagement, CDK5-NanoLuc/CDK5R1 in HEK-293; assay type: binding; details: CDK5/CDK5R1, read-out: Inhibition at 10µM (%)
[8] = biological target: CDK20/Cyclin H (Homo sapiens, UniProt Q8IZL9); assay: NanoBRET live-cell target engagement, NanoLuc-CDK20/Cyclin H in HEK-293; assay type: binding; details: CDK20/H, read-out: Inhibition at 10µM (%)
[9] = biological target: CDK16/Cyclin Y (Homo sapiens, UniProt Q00536); assay: NanoBRET live-cell target engagement, CDK16-NanoLuc/Cyclin Y in HEK-293; assay type: binding; details: CDK16/Y, read-out: Inhibition at 10µM (%)
[10] = biological target: CDK10/Cyclin L2 (Homo sapiens, UniProt Q15131); assay: NanoBRET live-cell target engagement, CDK10-NanoLuc/Cyclin L2 in HEK-293; details: read-out: Inhibition at 10µM (%), CDK10/L2
[11] = biological target: CDK4/Cyclin D1 (Homo sapiens, UniProt P11802); assay: NanoBRET live-cell target engagement, NanoLuc-CDK4/Cyclin D1 in HEK-293; assay type: binding; details: CDK4/D1, read-out: Inhibition at 10µM (%)
Sequence of CDK4/Cyclin D1 (P11802 whole entry): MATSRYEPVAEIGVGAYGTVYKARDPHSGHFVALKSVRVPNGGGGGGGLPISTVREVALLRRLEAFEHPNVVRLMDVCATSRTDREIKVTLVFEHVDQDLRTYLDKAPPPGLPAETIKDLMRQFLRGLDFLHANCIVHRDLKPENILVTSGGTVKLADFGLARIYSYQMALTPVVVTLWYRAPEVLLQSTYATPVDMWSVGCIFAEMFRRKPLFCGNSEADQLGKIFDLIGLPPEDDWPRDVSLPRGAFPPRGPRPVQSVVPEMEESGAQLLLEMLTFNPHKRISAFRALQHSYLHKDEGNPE
Sequence of CDK4/Cyclin D1 (P24385 whole entry partner): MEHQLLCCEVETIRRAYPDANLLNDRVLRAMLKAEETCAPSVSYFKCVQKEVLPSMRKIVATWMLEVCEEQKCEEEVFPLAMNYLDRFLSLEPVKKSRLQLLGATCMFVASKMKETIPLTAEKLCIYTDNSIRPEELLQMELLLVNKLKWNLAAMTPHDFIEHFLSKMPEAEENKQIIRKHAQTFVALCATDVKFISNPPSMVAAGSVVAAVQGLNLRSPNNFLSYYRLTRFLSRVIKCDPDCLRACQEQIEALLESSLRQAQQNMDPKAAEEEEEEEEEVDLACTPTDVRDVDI

[12] = biological target: CDK3/Cyclin E1 (Homo sapiens, UniProt Q00526); assay: NanoBRET live-cell target engagement, CDK3-NanoLuc/Cyclin E1 in HEK-293; assay type: binding; details: CDK3/E1, read-out: Inhibition at 10µM (%)
[13] = biological target: CDK15/Cyclin Y (Homo sapiens, UniProt Q96Q40); assay: NanoBRET live-cell target engagement, NanoLuc-CDK15/Cyclin Y in HEK-293; assay type: binding; details: CDK15/Y, read-out: Inhibition at 10µM (%)
Sequence of CDK15/Cyclin Y (Q96Q40 whole entry): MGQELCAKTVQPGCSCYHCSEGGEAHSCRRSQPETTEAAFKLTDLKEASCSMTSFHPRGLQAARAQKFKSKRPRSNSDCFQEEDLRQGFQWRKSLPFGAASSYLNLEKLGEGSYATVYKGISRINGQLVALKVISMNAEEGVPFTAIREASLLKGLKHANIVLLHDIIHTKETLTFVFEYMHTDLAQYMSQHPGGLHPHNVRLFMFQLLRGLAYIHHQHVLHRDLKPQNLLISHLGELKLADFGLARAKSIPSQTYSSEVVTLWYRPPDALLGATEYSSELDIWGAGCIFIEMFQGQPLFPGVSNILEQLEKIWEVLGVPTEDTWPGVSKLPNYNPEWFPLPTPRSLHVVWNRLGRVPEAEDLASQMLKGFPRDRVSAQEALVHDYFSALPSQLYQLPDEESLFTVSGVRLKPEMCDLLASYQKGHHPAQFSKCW
Sequence of CDK15/Cyclin Y (Q8ND76 whole entry partner): as the sequence (Q8ND76 whole entry partner) above

[14] = biological target: T1, CDK11A/Cyclin L2 (Homo sapiens, UniProt Q9UQ88); assay: NanoBRET live-cell target engagement, CDK11A-NanoLuc/Cyclin L2 in HEK-293; assay type: binding; details: CDK11a/L2, read-out: Inhibition at 10µM (%)
T1 sequence (Q9UQ88 1-783): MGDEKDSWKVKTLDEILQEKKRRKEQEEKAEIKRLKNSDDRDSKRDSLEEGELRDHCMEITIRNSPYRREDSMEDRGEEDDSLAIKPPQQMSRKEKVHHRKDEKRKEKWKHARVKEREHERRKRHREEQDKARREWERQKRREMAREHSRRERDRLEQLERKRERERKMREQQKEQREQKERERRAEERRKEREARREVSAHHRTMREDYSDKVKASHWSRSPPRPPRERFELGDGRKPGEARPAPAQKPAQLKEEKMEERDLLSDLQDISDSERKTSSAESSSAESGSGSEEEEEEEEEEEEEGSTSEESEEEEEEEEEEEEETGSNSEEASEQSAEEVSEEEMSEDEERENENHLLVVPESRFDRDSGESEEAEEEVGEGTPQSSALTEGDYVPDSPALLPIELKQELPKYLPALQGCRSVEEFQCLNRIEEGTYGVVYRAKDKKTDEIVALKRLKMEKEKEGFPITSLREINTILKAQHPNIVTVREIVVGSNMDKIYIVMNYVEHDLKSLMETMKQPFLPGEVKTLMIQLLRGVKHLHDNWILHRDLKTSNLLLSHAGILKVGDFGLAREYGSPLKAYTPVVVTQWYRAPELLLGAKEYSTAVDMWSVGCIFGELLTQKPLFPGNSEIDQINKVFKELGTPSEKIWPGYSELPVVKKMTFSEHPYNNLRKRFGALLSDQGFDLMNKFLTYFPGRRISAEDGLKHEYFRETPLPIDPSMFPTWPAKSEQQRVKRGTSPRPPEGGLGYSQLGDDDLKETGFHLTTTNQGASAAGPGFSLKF

[15] = biological target: CDK1/Cyclin E1 (Homo sapiens, UniProt P06493); assay: NanoBRET live-cell target engagement, CDK1-NanoLuc/Cyclin E1 in HEK-293; assay type: binding; details: CDK1/E1, read-out: Inhibition at 10µM (%)
[16] = biological target: CDK17/Cyclin Y (Homo sapiens, UniProt Q00537); assay: NanoBRET live-cell target engagement, CDK17-NanoLuc/Cyclin Y in HEK-293; assay type: binding; details: CDK17/Y, read-out: Inhibition at 10µM (%)
Sequence of CDK17/Cyclin Y (Q00537 whole entry): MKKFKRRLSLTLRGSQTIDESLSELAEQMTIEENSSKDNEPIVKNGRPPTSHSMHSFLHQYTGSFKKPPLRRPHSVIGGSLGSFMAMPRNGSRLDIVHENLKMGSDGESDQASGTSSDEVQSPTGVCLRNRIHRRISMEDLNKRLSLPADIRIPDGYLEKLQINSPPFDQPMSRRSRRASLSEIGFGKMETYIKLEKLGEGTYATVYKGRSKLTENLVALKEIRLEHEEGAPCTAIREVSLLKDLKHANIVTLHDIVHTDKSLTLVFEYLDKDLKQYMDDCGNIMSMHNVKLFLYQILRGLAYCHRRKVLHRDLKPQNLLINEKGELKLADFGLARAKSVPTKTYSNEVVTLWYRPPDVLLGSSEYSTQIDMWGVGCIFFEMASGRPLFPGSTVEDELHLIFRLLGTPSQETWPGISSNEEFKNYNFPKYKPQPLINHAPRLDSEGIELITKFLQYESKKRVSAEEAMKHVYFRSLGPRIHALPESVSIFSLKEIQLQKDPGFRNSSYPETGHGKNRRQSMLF
Sequence of CDK17/Cyclin Y (Q8ND76 whole entry partner): as the sequence (Q8ND76 whole entry partner) above

[17] = biological target: CDK2/Cyclin E1 (Homo sapiens, UniProt P24941); assay: NanoBRET live-cell target engagement, CDK2-NanoLuc/Cyclin E1 in HEK-293; assay type: binding; details: CDK2/E1, read-out: Inhibition at 10µM (%)
[18] = biological target: CDK7 (Homo sapiens, UniProt P50613); assay: NanoBRET live-cell target engagement, NanoLuc-CDK7 in HEK-293; assay type: binding; details: CDK7, read-out: Inhibition at 10µM (%)
Sequence of CDK7 (P50613 whole entry): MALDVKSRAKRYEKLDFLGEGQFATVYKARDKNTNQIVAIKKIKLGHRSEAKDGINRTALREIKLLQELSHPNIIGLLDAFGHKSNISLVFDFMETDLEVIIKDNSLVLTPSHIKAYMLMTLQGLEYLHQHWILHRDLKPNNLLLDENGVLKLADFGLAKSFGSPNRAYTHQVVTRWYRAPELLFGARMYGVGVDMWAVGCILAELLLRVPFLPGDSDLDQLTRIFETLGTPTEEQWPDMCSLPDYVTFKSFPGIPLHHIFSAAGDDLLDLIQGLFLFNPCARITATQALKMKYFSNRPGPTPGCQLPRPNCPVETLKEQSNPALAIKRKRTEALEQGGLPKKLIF

[19] = biological target: CDK8/Cyclin C (Homo sapiens, UniProt P49336); assay: NanoBRET live-cell target engagement, NanoLuc-CDK8/Cyclin C in HEK-293; assay type: binding; details: CDK8/C, read-out: Inhibition at 10µM (%)
Sequence of CDK8/Cyclin C (P49336 whole entry): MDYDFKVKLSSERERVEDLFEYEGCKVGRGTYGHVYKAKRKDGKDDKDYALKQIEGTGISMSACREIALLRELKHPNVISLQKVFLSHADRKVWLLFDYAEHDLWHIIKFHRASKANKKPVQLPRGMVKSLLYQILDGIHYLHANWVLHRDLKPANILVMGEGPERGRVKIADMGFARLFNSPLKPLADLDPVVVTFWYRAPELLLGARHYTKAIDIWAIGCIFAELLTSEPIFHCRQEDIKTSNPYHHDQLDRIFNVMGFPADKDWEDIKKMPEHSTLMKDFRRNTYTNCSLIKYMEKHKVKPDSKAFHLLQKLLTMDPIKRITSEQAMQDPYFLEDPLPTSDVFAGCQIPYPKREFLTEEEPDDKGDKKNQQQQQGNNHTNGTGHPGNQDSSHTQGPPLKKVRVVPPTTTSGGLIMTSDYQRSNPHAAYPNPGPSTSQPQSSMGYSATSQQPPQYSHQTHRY
Sequence of CDK8/Cyclin C (P24863 whole entry partner): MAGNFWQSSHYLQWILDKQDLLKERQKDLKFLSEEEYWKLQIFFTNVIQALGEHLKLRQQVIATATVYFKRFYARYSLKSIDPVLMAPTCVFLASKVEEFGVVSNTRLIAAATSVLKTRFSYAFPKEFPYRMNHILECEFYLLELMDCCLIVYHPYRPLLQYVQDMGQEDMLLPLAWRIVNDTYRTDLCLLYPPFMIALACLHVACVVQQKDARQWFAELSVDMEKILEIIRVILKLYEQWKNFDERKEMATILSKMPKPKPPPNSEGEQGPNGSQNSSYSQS

**Q.** How did the inhibition at 10 µM ([1]; average) turn out when `CC(C)N1CCN(c2ccc(Nc3ncc4cc5n(c4n3)C3(CCCCC3)CNC5=O)nc2)CC1` [Lerociclib] was run?
**A.** Its inhibition at 10 µM is 13%.

**Q.** What about the inhibition at 10 µM ([1]; experiment 1) of the same compound?
**A.** Its inhibition at 10 µM is 7.9%.

**Q.** What about the inhibition at 10 µM ([1]; experiment 2) of the same compound?
**A.** The inhibition at 10 µM was 18.2%.

**Q.** What about the inhibition at 10 µM ([2]; average) of the same compound?
**A.** The inhibition at 10 µM was 16.1%.

**Q.** What about the inhibition at 10 µM ([2]; experiment 1) of the same compound?
**A.** Its inhibition at 10 µM is 0.226%.

**Q.** And the inhibition at 10 µM ([2]; experiment 2)?
**A.** Its inhibition at 10 µM is 32%.

**Q.** And the inhibition at 10 µM ([3]; average)?
**A.** Its inhibition at 10 µM is 29.3%.

**Q.** What about the inhibition at 10 µM ([3]; experiment 1) of the same compound?
**A.** Its inhibition at 10 µM is 31%.

**Q.** What about the inhibition at 10 µM ([3]; experiment 2) of the same compound?
**A.** The inhibition at 10 µM was 27.6%.

**Q.** And the inhibition at 10 µM ([4]; average)?
**A.** The inhibition at 10 µM was 98.9%.

**Q.** What about the inhibition at 10 µM ([4]; experiment 1) of the same compound?
**A.** The inhibition at 10 µM was 97%.

**Q.** What about the inhibition at 10 µM ([4]; experiment 2) of the same compound?
**A.** The inhibition at 10 µM was 101%.

**Q.** What about the inhibition at 10 µM ([5]; average) of the same compound?
**A.** The inhibition at 10 µM was 29.2%.

**Q.** What about the inhibition at 10 µM ([5]; experiment 1) of the same compound?
**A.** Its inhibition at 10 µM is 25.1%.

**Q.** What about the inhibition at 10 µM ([5]; experiment 2) of the same compound?
**A.** The inhibition at 10 µM was 33.2%.

**Q.** And the inhibition at 10 µM ([6]; average)?
**A.** Its inhibition at 10 µM is 19.5%.

**Q.** What about the inhibition at 10 µM ([6]; experiment 1) of the same compound?
**A.** Its inhibition at 10 µM is 22.1%.

**Q.** What about the inhibition at 10 µM ([6]; experiment 2) of the same compound?
**A.** Its inhibition at 10 µM is 16.8%.

**Q.** What about the inhibition at 10 µM ([7]; average) of the same compound?
**A.** Its inhibition at 10 µM is 12.2%.

**Q.** And the inhibition at 10 µM ([7]; experiment 1)?
**A.** Its inhibition at 10 µM is 5.5%.

**Q.** What about the inhibition at 10 µM ([7]; experiment 2) of the same compound?
**A.** The inhibition at 10 µM was 18.9%.

**Q.** What about the inhibition at 10 µM ([8]; experiment 1) of the same compound?
**A.** Its inhibition at 10 µM is 10.2%.

**Q.** What about the inhibition at 10 µM ([8]; experiment 2) of the same compound?
**A.** The inhibition at 10 µM was 7.2%.

**Q.** And the inhibition at 10 µM ([9]; experiment 1)?
**A.** The inhibition at 10 µM was 77.1%.

**Q.** What about the inhibition at 10 µM ([9]; experiment 2) of the same compound?
**A.** Its inhibition at 10 µM is 32%.

**Q.** What about the inhibition at 10 µM ([10]; average) of the same compound?
**A.** Its inhibition at 10 µM is 7.8%.

**Q.** What about the inhibition at 10 µM ([10]; experiment 1) of the same compound?
**A.** Its inhibition at 10 µM is 9.5%.

**Q.** And the inhibition at 10 µM ([10]; experiment 2)?
**A.** The inhibition at 10 µM was 6.2%.

**Q.** And the inhibition at 10 µM ([11]; average)?
**A.** The inhibition at 10 µM was 93.4%.

**Q.** What about the inhibition at 10 µM ([11]; experiment 1) of the same compound?
**A.** Its inhibition at 10 µM is 96.8%.

**Q.** What about the inhibition at 10 µM ([11]; experiment 2) of the same compound?
**A.** The inhibition at 10 µM was 90.1%.

**Q.** And the inhibition at 10 µM ([12]; average)?
**A.** Its inhibition at 10 µM is 3.3%.

**Q.** And the inhibition at 10 µM ([12]; experiment 1)?
**A.** The inhibition at 10 µM was 5%.

**Q.** What about the inhibition at 10 µM ([12]; experiment 2) of the same compound?
**A.** Its inhibition at 10 µM is 1.6%.

**Q.** And the inhibition at 10 µM ([13]; average)?
**A.** Its inhibition at 10 µM is 14.9%.

**Q.** What about the inhibition at 10 µM ([13]; experiment 1) of the same compound?
**A.** Its inhibition at 10 µM is 5%.

**Q.** What about the inhibition at 10 µM ([13]; experiment 2) of the same compound?
**A.** The inhibition at 10 µM was 24.7%.

**Q.** And the inhibition at 10 µM ([14]; average)?
**A.** Its inhibition at 10 µM is 7.4%.

**Q.** What about the inhibition at 10 µM ([14]; experiment 1) of the same compound?
**A.** Its inhibition at 10 µM is 2%.

**Q.** And the inhibition at 10 µM ([14]; experiment 2)?
**A.** Its inhibition at 10 µM is 12.8%.

**Q.** And the inhibition at 10 µM ([15]; average)?
**A.** Its inhibition at 10 µM is 7.7%.

**Q.** And the inhibition at 10 µM ([15]; experiment 1)?
**A.** Its inhibition at 10 µM is 12.1%.

**Q.** What about the inhibition at 10 µM ([15]; experiment 2) of the same compound?
**A.** Its inhibition at 10 µM is 3.2%.

**Q.** What about the inhibition at 10 µM ([16]; average) of the same compound?
**A.** Its inhibition at 10 µM is 58.5%.

**Q.** And the inhibition at 10 µM ([16]; experiment 1)?
**A.** Its inhibition at 10 µM is 75.6%.

**Q.** What about the inhibition at 10 µM ([16]; experiment 2) of the same compound?
**A.** The inhibition at 10 µM was 41.4%.

**Q.** What about the inhibition at 10 µM ([17]; average) of the same compound?
**A.** Its inhibition at 10 µM is -5.8%.

**Q.** What about the inhibition at 10 µM ([17]; experiment 1) of the same compound?
**A.** The inhibition at 10 µM was -11%.

**Q.** What about the inhibition at 10 µM ([17]; experiment 2) of the same compound?
**A.** The inhibition at 10 µM was -0.6%.

**Q.** What about the inhibition at 10 µM ([18]; average) of the same compound?
**A.** The inhibition at 10 µM was 35.1%.

**Q.** And the inhibition at 10 µM ([18]; experiment 1)?
**A.** Its inhibition at 10 µM is 12.3%.

**Q.** What about the inhibition at 10 µM ([18]; experiment 2) of the same compound?
**A.** The inhibition at 10 µM was 58%.

**Q.** What about the inhibition at 10 µM ([19]; average) of the same compound?
**A.** Its inhibition at 10 µM is 4.9%.

**Q.** And the inhibition at 10 µM ([19]; experiment 1)?
**A.** The inhibition at 10 µM was 6.7%.

**Q.** And the inhibition at 10 µM ([19]; experiment 2)?
**A.** Its inhibition at 10 µM is 3%.
